“Also recorded” adds a separate entry of the source. Where two headings read alike, the source gives them in different places.
Key:
hpMR1 = hpMR1 (UniProt C1ITJ8+Q95460); conditions: tandem mass spectrometry; hpMR1-bac, +EC, +MS
Experimental: MR1 expressed in cells infected with two distinct microbes recognized by MR1Ts, E. coli and M. smegmatis, were analyzed by flow cytometry, ELISPOT assay, and mass spectrometry.
The presence and relative abundance of known MR1T ligands was assessed.
To further explore the MR1 ligandome, all ligands eluted from hpMR1-bac, +EC, and +MS were evaluated using LCMS. Fold increase was calculated for each ion/ligand in either hpMR1+MS or +EC compared to all other samples and plotted on volcano plots (FIG. 2A).
Global Natural Products Social Molecular Networking (GNPS) was used to assist in the identification of these novel ligands.

MR1 = MR1 (Homo sapiens, UniProt Q95460); experiment: Binding of small molecule ligands to MR1
Description: 6,7-dimethyl-5-deazalumazine (DZ) is a synthetic compound designed based on the structure and activity of FO and other known mycobacterial ligands for MR1. […] Photolumazines I and III are small molecule secondary metabolites produced by bacteria.
Binding can be detected by any procedure known to one skilled in the art, such as by physical or functional properties including cellular properties. Binding can also be detected by visualization of a label (such as a fluorescent label) conjugated to one of the molecules.
Disclosed herein is work reflecting the diversity of ligands bound by MR1 in the context of infection with different microbes. MR1 ligand diversity is detected by MR1T cells, as MR1 tetramers loaded with multiple bacterial ligands were broadly recognized by MR1T clones with distinct TCR arrangements and by PBMC from a panel of donors. […] While previous work has only identified a few riboflavin metabolites as activating MR1Ts, our results establishes that MR1 samples the broader microbial metabolome similar to how conventional MHC molecules sample the microbial peptidome and CD1 molecules sample microbial lipids and glycolipids.

MR1T clones = experiment: Ability of synthetic ligands to stimulate MR1T clones; type: cell-based, human
Experimental: (§1) To determine whether riboflavin, FO, PLI, and PLIII were antigens, they were tested for their ability to stimulate MR1T clones. […] (FIGS. 4A, 4B). […] To determine whether riboflavin or FO are also antagonistic, antigen presenting cells (APC) were pre-loaded with riboflavin or FO and then tested for their ability to present antigens from M. smegmatis supernatant (Msm-sup) to MR1Ts. […] PLI and PLIII were each tested for their ability to stimulate two MR1T clones with distinct TCRs.
(§2) FIGS. 4A, 4B, 4C, 4D: MR1T cell responses to synthetic ligands. A-B) MR1T cell clone D426 G11 responses to BEAS-2B cells incubated with FO (A, 10 μM, 30 μM, or 100 μM), or Riboflavin (B, 7.8 μM-500 μM) prior to addition of M. smegmatis supernatant (Msm-s) or PHA. C) MR1 cell clone D481 C7 responses to DC incubated with synthetic PLI, PLIII, RL-6,7,-diMe (DMRL), or RL-6-Me-7-OH (HMRL), at 1.56μM-200μM, or M. smegmatis (Msm), M. smegmatis supernatant (Msm-s), or PHA. D) Panel of MR1T cell clones or an HLA-B45-restricted T cell clone (D466 A10) incubated with 100 μM PLI, PLIII, DMRL, or HMRL.

MR1T cell clone D426 G11 [1] = conditions: literature (Harriff 2016; Eckle 2014); cited from earlier work
MR1T cell clone D426 G11 [2] = experiment: Blocking of MR1T clone response to M. smegmatis supernatant after pre-loading antigen presenting cells; type: cell-based, human; conditions: for blocking of MR1T clone response to Msm-sup (MAIT cell activation): APC (BEAS-2B) pre-loaded with FO 10-100 μM or riboflavin 7.8-500 μM, then M. smegmatis supernatant
Experimental: as §1, §2

MR1T clone D481_C7 = experiment: MR1T cell clone D481 C7 responses to DC incubated with synthetic ligands; type: cell-based, human; conditions: for response of clone D481_C7: 100 μM ligand (FIG. 4D); for IFN-γ response of clone D481_C7: DC incubated with ligand at 1.56 μM-200 μM (FIG. 4C top)
Experimental: as §1
(§3) Given the striking differences in response between D481_C7 and D426_G11, we postulated that discrete TCR usage could be associated with ligand discrimination. To test this, an expanded panel of TCR diverse MR1T clones was tested for their ability to recognize each antigen. Every clone responded robustly to APC infected with M. smegmatis (FIG. 4D). […] In contrast, the D481_C7 responded to RL-6-Me-7-OH as well as RL-6,7-diMe, PLI, and PLIII. Because TRAV1-2 negative cells were stained with the hpMR1+EC tetramer, we also tested the ability of a recently described TRAV12-2 MR1T cell clone to respond to these ligands.
as §2

MR1T clone D426_G11 = experiment: MR1T cell clone D426_G11 responses to synthetic ligands; type: cell-based, human; conditions: FIG. 4C bottom
Experimental: as §1, §2

[3] = tested on: D481_F12 and D481_A9 MR1T cell clones; experiment: D481_F12 and D481_A9 MR1T cell clone responses to synthetic ligands; type: cell-based, human; conditions: 100 μM ligand (FIG. 4D)
Experimental: as §3, §2

[4] = tested on: D462_E4 TRAV12-2 MR1T cell clone; experiment: TRAV12-2 MR1T cell clone D462_E4 responses to synthetic ligands; type: cell-based, human; conditions: 100 μM ligand (FIG. 4D)
Experimental: as §3, §2

hpMR1, sequence (Q95460 23-201 limits assumed): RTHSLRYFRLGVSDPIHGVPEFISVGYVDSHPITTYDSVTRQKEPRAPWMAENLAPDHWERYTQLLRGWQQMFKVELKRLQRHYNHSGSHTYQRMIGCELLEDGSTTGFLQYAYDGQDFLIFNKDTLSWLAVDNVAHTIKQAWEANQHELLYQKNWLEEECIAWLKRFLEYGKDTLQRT
hpMR1, sequence (C1ITJ8 198-289 limits assumed): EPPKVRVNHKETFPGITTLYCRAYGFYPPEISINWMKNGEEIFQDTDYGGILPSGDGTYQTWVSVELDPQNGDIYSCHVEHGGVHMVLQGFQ
MR1, sequence (Q95460 23-341): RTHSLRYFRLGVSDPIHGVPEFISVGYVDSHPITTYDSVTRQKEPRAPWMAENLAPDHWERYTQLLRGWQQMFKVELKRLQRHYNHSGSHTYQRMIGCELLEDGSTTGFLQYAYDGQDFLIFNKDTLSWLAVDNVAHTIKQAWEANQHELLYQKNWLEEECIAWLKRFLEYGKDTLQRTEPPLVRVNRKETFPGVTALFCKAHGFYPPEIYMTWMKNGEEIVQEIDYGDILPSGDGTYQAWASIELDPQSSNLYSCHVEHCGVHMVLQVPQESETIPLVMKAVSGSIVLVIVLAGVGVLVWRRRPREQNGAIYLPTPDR
MR1, sequence (P61769 21-119 partner): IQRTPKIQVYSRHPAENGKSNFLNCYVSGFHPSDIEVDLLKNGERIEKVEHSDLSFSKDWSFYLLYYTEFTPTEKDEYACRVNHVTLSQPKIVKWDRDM

Compound	presence among ligands eluted from hpMR1 preparations (hpMR1)	binding to MR1 / MR1 ligand (MR1)	ability to stimulate MR1T clones (MR1T cell activation) (MR1T clones)	response of clone D481_C7 (MR1T clone D481_C7)	recognition by D481_F12 and D481_A9 MR1T cell clones [3]	response of D462_E4 TRAV12-2 MR1T cell clone [4]	further results
O=CC=Nc1c(NC[C@H](O)[C@H](O)[C@H](O)CO)[nH]c(=O)[nH]c1=O [5-OE-RU, 5-(2-oxoethylideneamino)-6-D-ribitylaminouracil]	not found in these hpMR1 preparations						
Cc1cc2c(=O)[nH]c(=O)[nH]c2nc1C [DZ, 6,7-dimethyl-5-deazalumazine]		binds MR1	activates MR1 restricted T cells				
Nc1nc2ncc(C=O)nc2c(=O)[nH]1 [6-FP]							antagonism of MR1T activation (MR1T cell clone D426 G11 [1]): antagonizes MR1T activation
Cc1cc2nc3c(=O)[nH]c(=O)nc-3n(C[C@H](O)[C@H](O)[C@H](O)CO)c2cc1C [riboflavin, reference compound]		confirmed these molecules as novel MR1 ligands	Neither riboflavin nor FO was capable of MR1T cell activation				blocking of MR1T clone response to Msm-sup (MAIT cell activation) (MR1T cell clone D426 G11 [2]): blocked the MR1T clone response to Msm-sup
O=c1nc2n(C[C@H](O)[C@H](O)[C@H](O)CO)c(O)c(-c3c[nH]c4ccccc34)nc-2c(=O)[nH]1 [PLIII]		confirmed these molecules as novel MR1 ligands	antigenic	responded	modest or no recognition	comparable responses to RL-6-Me-7-OH and PLI that were greater than PLIII	binding to MR1 / MR1 ligand (MR1; listed as Photolumazine III): bind MR1; IFN-γ response of clone D481_C7 (MR1T clone D481_C7): potent activating ligands similar to RL-6,7-diMe; IFN-γ response of clone D426_G11 (MR1T clone D426_G11): only modest responses; ability to stimulate MR1T clones (MR1T cell activation) (MR1T clones; listed as Photolumazine III): activated MR1 restricted T cells
O=c1nc2n(C[C@H](O)[C@H](O)[C@H](O)CO)c3cc(O)ccc3cc-2c(=O)[nH]1 [FO]		binds MR1; also recorded: confirmed these molecules as novel MR1 ligands	Neither riboflavin nor FO was capable of MR1T cell activation				blocking of MR1T clone response to Msm-sup (MAIT cell activation) (MR1T cell clone D426 G11 [2]): blocks the activation of MAIT cells; also recorded: blocked the MR1T clone response to Msm-sup; antagonist potency relative to riboflavin (amount required to reach 50% inhibition) (MR1T cell clone D426 G11 [2]; pre-incubation of APC, response to Msm-sup): less FO was required to reach 50% inhibition
Cc1nc2c(=O)[nH]c(=O)nc-2n(C[C@H](O)[C@H](O)[C@H](O)CO)c1C [RL-6,7-diMe, reference compound]	not found in these hpMR1 preparations			responded	responded	did not respond	
Cc1nc2c(=O)[nH]c(=O)nc-2n(C[C@H](O)[C@H](O)[C@H](O)CO)c1O [RL-6-Me-7-OH, reference compound]				responded	modest or no recognition	comparable responses to RL-6-Me-7-OH and PLI that were greater than PLIII	
O=C(O)CCc1nc2c(=O)[nH]c(=O)nc-2n(C[C@H](O)[C@H](O)[C@H](O)CO)c1O [PLI]	unique to hpMR1+MS	confirmed these molecules as novel MR1 ligands	antigenic	responded	modest or no recognition	comparable responses to RL-6-Me-7-OH and PLI that were greater than PLIII	binding to MR1 / MR1 ligand (MR1; listed as Photolumazine I): bind MR1; IFN-γ response of clone D481_C7 (MR1T clone D481_C7): potent activating ligands similar to RL-6,7-diMe; IFN-γ response of clone D426_G11 (MR1T clone D426_G11): only modest responses; ability to stimulate MR1T clones (MR1T cell activation) (MR1T clones; listed as Photolumazine I): activated MR1 restricted T cells

Source: patent publication US10457682B2, “Small molecules that bind MR1” (OREGON HEALTH & SCIENCE UNIVERSITY, priority 2016, dated 2019)
